Results reported in PubChem BioAssay AID2060887 (Molecular Pharmacology Branch, DTP, NCI, 2025).

Tested on: 782815-120-R-J1-PDC complex spheroid viability
Assay: Anticancer human tumor 782815-120-R-J1-PDC patient-derived colon adenocarcinoma cell line growth inhibition [RAS]
Settings: for IC50: curve of first compound; for viability, T/C: stronger effect = lower value
Summary of the method: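 Multi-cell-type spheroids: tumor cells plus HUVEC endothelial cells and mesenchymal stem cells. RAS-pathway inhibitors were combined with targeted agents, each dosed in half-log steps down from clinical Cmax, or from 10 microM when Cmax was unknown.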

[1] = second compound 0.000949 µM, first compound 0.0316 µM
[2] = second compound 0.000949 µM, first compound 0.1 µM
[3] = second compound 0.003 µM, first compound 0.0316 µM
[4] = second compound 0.003 µM, first compound 0.1 µM
[5] = second compound 0.00949 µM, first compound 0.0316 µM
[6] = second compound 0.00949 µM, first compound 0.1 µM
[7] = second compound 0.03 µM, first compound 0.0316 µM
[8] = second compound 0.03 µM, first compound 0.1 µM
[9] = second compound 0.0949 µM, first compound 0.0316 µM
[10] = second compound 0.0949 µM, first compound 0.1 µM
[11] = second compound 0.3 µM, first compound 0.0316 µM
[12] = second compound 0.3 µM, first compound 0.1 µM
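Note: spheroids exposed to compounds for 7 days before reading.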
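Throughout, for viability, T/C: 100% = DMSO vehicle control viability.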

Q: `CC(C)n1nc(-c2ccc3oc(N)nc3c2)c2c(N)ncnc21` + CCn1c(-c2cc(N3CCN(C)CC3)cnc2C(C)OC)c2c3cc(ccc31)-c1csc(n1)CC(NC(=O)C1CC1C)C(=O)N1CCCC(N1)C(=O)OCC(C)(C)C2 was tested. Which IC50 (second compound 0.000949 µM) did it give?
A: > 100 nM

Q: What about the IC50 (second compound 0.003 µM) of the same molecule?
A: 32.6 nM

Q: And the IC50 (second compound 0.00949 µM)?
A: < 0.316 nM

Q: And the IC50 (second compound 0.03 µM)?
A: < 0.316 nM

Q: And the IC50 (second compound 0.0949 µM)?
A: < 0.316 nM

Q: What about the IC50 (second compound 0.3 µM) of the same molecule?
A: < 0.316 nM

Q: And the viability, T/C (second compound 0.000949 µM, first compound 0.000316 µM)?
A: 79.2%

Q: What about the viability, T/C (second compound 0.000949 µM, first compound 0.001 µM) of the same molecule?
A: 71.7%

Q: And the viability, T/C (second compound 0.000949 µM, first compound 0.00316 µM)?
A: 70.3%

Q: What about the viability, T/C (second compound 0.000949 µM, first compound 0.01 µM) of the same molecule?
A: 71.4%

Q: And the viability, T/C [1]?
A: 65.5%

Q: What about the viability, T/C [2] of the same molecule?
A: 65.9%

Q: What about the viability, T/C (second compound 0.003 µM, first compound 0.000316 µM) of the same molecule?
A: 64.2%

Q: What about the viability, T/C (second compound 0.003 µM, first compound 0.001 µM) of the same molecule?
A: 57.5%

Q: And the viability, T/C (second compound 0.003 µM, first compound 0.00316 µM)?
A: 59.6%

Q: What about the viability, T/C (second compound 0.003 µM, first compound 0.01 µM) of the same molecule?
A: 52.9%

Q: What about the viability, T/C [3] of the same molecule?
A: 53.2%

Q: And the viability, T/C [4]?
A: 40.9%

Q: And the viability, T/C (second compound 0.00949 µM, first compound 0.000316 µM)?
A: 36.3%

Q: What about the viability, T/C (second compound 0.00949 µM, first compound 0.001 µM) of the same molecule?
A: 34.2%

Q: And the viability, T/C (second compound 0.00949 µM, first compound 0.00316 µM)?
A: 35.9%

Q: What about the viability, T/C (second compound 0.00949 µM, first compound 0.01 µM) of the same molecule?
A: 29%

Q: And the viability, T/C [5]?
A: 27.7%

Q: And the viability, T/C [6]?
A: 23.7%

Q: And the viability, T/C (second compound 0.03 µM, first compound 0.000316 µM)?
A: 19.4%

Q: What about the viability, T/C (second compound 0.03 µM, first compound 0.001 µM) of the same molecule?
A: 19.6%

Q: And the viability, T/C (second compound 0.03 µM, first compound 0.00316 µM)?
A: 20.6%

Q: What about the viability, T/C (second compound 0.03 µM, first compound 0.01 µM) of the same molecule?
A: 17%

Q: And the viability, T/C [7]?
A: 14.6%

Q: And the viability, T/C [8]?
A: 10.7%

Q: What about the viability, T/C (second compound 0.0949 µM, first compound 0.000316 µM) of the same molecule?
A: 15.4%

Q: What about the viability, T/C (second compound 0.0949 µM, first compound 0.001 µM) of the same molecule?
A: 16.2%

Q: And the viability, T/C (second compound 0.0949 µM, first compound 0.00316 µM)?
A: 14.8%

Q: What about the viability, T/C (second compound 0.0949 µM, first compound 0.01 µM) of the same molecule?
A: 14.2%

Q: And the viability, T/C [9]?
A: 9.96%

Q: And the viability, T/C [10]?
A: 6.66%

Q: And the viability, T/C (second compound 0.3 µM, first compound 0.000316 µM)?
A: 15.2%

Q: And the viability, T/C (second compound 0.3 µM, first compound 0.001 µM)?
A: 15.5%

Q: And the viability, T/C (second compound 0.3 µM, first compound 0.00316 µM)?
A: 12.6%

Q: What about the viability, T/C (second compound 0.3 µM, first compound 0.01 µM) of the same molecule?
A: 12.4%

Q: And the viability, T/C [11]?
A: 8.16%

Q: What about the viability, T/C [12] of the same molecule?
A: 4.66%

Q: Which results are given for `CCc1c2c(nc3ccc(O)cc13)-c1cc3c(c(=O)n1C2)COC(=O)[C@]3(O)CC` + C=CC(=O)N1CCN(c2nc(OCC3CCCN3C)nc3c(F)c(-c4nc(N)cc(C)c4C(F)(F)F)c(Cl)cc23)C(C)C1?
A: IC50 (second compound 0.00316 µM): 4.1 nM; IC50 (second compound 0.01 µM): 3.93 nM; IC50 (second compound 0.0316 µM): 4.6 nM; IC50 (second compound 0.1 µM): 3.92 nM; IC50 (second compound 0.316 µM): 4.07 nM; IC50 (second compound 1 µM): 4.39 nM; viability, T/C (second compound 0.00316 µM, first compound 0.000949 µM): 91.2%; viability, T/C (second compound 0.00316 µM, first compound 0.003 µM): 60.4%; viability, T/C (second compound 0.00316 µM, first compound 0.00949 µM): 22.1%; viability, T/C (second compound 0.00316 µM, first compound 0.03 µM): 9.72%; viability, T/C (second compound 0.00316 µM, first compound 0.0949 µM): 3.7%; viability, T/C (second compound 0.00316 µM, first compound 0.3 µM): 1.61%; viability, T/C (second compound 0.01 µM, first compound 0.000949 µM): 97.2%; viability, T/C (second compound 0.01 µM, first compound 0.003 µM): 58.9%; viability, T/C (second compound 0.01 µM, first compound 0.00949 µM): 21.3%; viability, T/C (second compound 0.01 µM, first compound 0.03 µM): 9.84%; viability, T/C (second compound 0.01 µM, first compound 0.0949 µM): 3.15%; viability, T/C (second compound 0.01 µM, first compound 0.3 µM): 1.53%; viability, T/C (second compound 0.0316 µM, first compound 0.000949 µM): 99.2%; viability, T/C (second compound 0.0316 µM, first compound 0.003 µM): 67.4%; viability, T/C (second compound 0.0316 µM, first compound 0.00949 µM): 20%; viability, T/C (second compound 0.0316 µM, first compound 0.03 µM): 9.96%; viability, T/C (second compound 0.0316 µM, first compound 0.0949 µM): 3.02%; viability, T/C (second compound 0.0316 µM, first compound 0.3 µM): 1.51%; viability, T/C (second compound 0.1 µM, first compound 0.000949 µM): 92.8%; viability, T/C (second compound 0.1 µM, first compound 0.003 µM): 59.4%; viability, T/C (second compound 0.1 µM, first compound 0.00949 µM): 19.2%; viability, T/C (second compound 0.1 µM, first compound 0.03 µM): 8.28%; viability, T/C (second compound 0.1 µM, first compound 0.0949 µM): 4.23%; viability, T/C (second compound 0.1 µM, first compound 0.3 µM): 1.49%; viability, T/C (second compound 0.316 µM, first compound 0.000949 µM): 100%; viability, T/C (second compound 0.316 µM, first compound 0.003 µM): 60.7%; viability, T/C (second compound 0.316 µM, first compound 0.00949 µM): 20.4%; viability, T/C (second compound 0.316 µM, first compound 0.03 µM): 9.08%; viability, T/C (second compound 0.316 µM, first compound 0.0949 µM): 3.9%; viability, T/C (second compound 0.316 µM, first compound 0.3 µM): 1.28%; viability, T/C (second compound 1 µM, first compound 0.000949 µM): 99.3%; viability, T/C (second compound 1 µM, first compound 0.003 µM): 65%; viability, T/C (second compound 1 µM, first compound 0.00949 µM): 19.3%; viability, T/C (second compound 1 µM, first compound 0.03 µM): 10.1%; viability, T/C (second compound 1 µM, first compound 0.0949 µM): 3.83%; viability, T/C (second compound 1 µM, first compound 0.3 µM): 1.36%

Q: How did the IC50 (second compound 0.000949 µM) turn out when `CCC(CC)c1cc(NC2CCC(N)C2)n2nccc2n1` (stereo unspecified) + CCn1c(-c2cccnc2C(C)OC)c2c3cc(ccc31)N1CCOC(CC(NC(=O)C(C(C)C)N(C)C(=O)C3(F)CCN(C(=O)C#CC(C)(C)N(C)C)CC3)C(=O)N3CCCC(N3)C(=O)OCC(C)(C)C2)C1 was run?
A: 2930 nM

Q: And the IC50 (second compound 0.003 µM)?
A: 3080 nM

Q: What about the IC50 (second compound 0.00949 µM) of the same molecule?
A: 2860 nM

Q: What about the IC50 (second compound 0.03 µM) of the same molecule?
A: 2740 nM

Q: And the IC50 (second compound 0.0949 µM)?
A: 2850 nM

Q: And the IC50 (second compound 0.3 µM)?
A: 2360 nM

Q: What about the viability, T/C [1] of the same molecule?
A: 98.6%

Q: What about the viability, T/C [2] of the same molecule?
A: 90.5%

Q: What about the viability, T/C (second compound 0.000949 µM, first compound 0.316 µM) of the same molecule?
A: 103%

Q: What about the viability, T/C (second compound 0.000949 µM, first compound 1 µM) of the same molecule?
A: 100%

Q: What about the viability, T/C (second compound 0.000949 µM, first compound 3.16 µM) of the same molecule?
A: 46.6%

Q: What about the viability, T/C (second compound 0.000949 µM, first compound 10 µM) of the same molecule?
A: 2.15%

Q: And the viability, T/C [3]?
A: 97.9%

Q: What about the viability, T/C [4] of the same molecule?
A: 92.7%

Q: What about the viability, T/C (second compound 0.003 µM, first compound 0.316 µM) of the same molecule?
A: 97.4%

Q: What about the viability, T/C (second compound 0.003 µM, first compound 1 µM) of the same molecule?
A: 96.8%

Q: What about the viability, T/C (second compound 0.003 µM, first compound 3.16 µM) of the same molecule?
A: 48.9%

Q: And the viability, T/C (second compound 0.003 µM, first compound 10 µM)?
A: 1.8%

Q: And the viability, T/C [5]?
A: 101%

Q: And the viability, T/C [6]?
A: 102%

Q: And the viability, T/C (second compound 0.00949 µM, first compound 0.316 µM)?
A: 95.9%

Q: What about the viability, T/C (second compound 0.00949 µM, first compound 1 µM) of the same molecule?
A: 102%

Q: And the viability, T/C (second compound 0.00949 µM, first compound 3.16 µM)?
A: 45.1%

Q: What about the viability, T/C (second compound 0.00949 µM, first compound 10 µM) of the same molecule?
A: 2.14%

Q: And the viability, T/C [7]?
A: 94.2%

Q: And the viability, T/C [8]?
A: 96.5%

Q: What about the viability, T/C (second compound 0.03 µM, first compound 0.316 µM) of the same molecule?
A: 103%

Q: What about the viability, T/C (second compound 0.03 µM, first compound 1 µM) of the same molecule?
A: 108%

Q: And the viability, T/C (second compound 0.03 µM, first compound 3.16 µM)?
A: 42.8%

Q: And the viability, T/C (second compound 0.03 µM, first compound 10 µM)?
A: 2.25%

Q: What about the viability, T/C [9] of the same molecule?
A: 97.6%

Q: What about the viability, T/C [10] of the same molecule?
A: 99%

Q: And the viability, T/C (second compound 0.0949 µM, first compound 0.316 µM)?
A: 97.4%

Q: What about the viability, T/C (second compound 0.0949 µM, first compound 1 µM) of the same molecule?
A: 106%

Q: And the viability, T/C (second compound 0.0949 µM, first compound 3.16 µM)?
A: 45%

Q: What about the viability, T/C (second compound 0.0949 µM, first compound 10 µM) of the same molecule?
A: 2.54%

Q: And the viability, T/C [11]?
A: 91.9%

Q: And the viability, T/C [12]?
A: 92.6%

Q: And the viability, T/C (second compound 0.3 µM, first compound 0.316 µM)?
A: 94.3%

Q: And the viability, T/C (second compound 0.3 µM, first compound 1 µM)?
A: 101%

Q: What about the viability, T/C (second compound 0.3 µM, first compound 3.16 µM) of the same molecule?
A: 34.9%

Q: And the viability, T/C (second compound 0.3 µM, first compound 10 µM)?
A: 3.21%
